# Laboratory results: publication PMC7891606 (Clinical Pharmacology in Drug Development, 2020)
# Entries after “also recorded” stand apart in the source; their conditions may differ. Like-named read-outs stand apart in the source and are kept apart here.
# Columns and labels:
# [1] = period 1, before opicapone
# [2] = after metabolism by peripheral AADC and COMT; cited from earlier work
# clinical = settings: male, human, in vivo, po, 100 mg
# [3] = Effect of opicapone on plasma L‐dopa and 3‐OMD exposure; type: in vivo, healthy Japanese adult males
# Safety and tolerability = type: in vivo, healthy Japanese adult males; settings: for Tolerability: opicapone tablets 5 to 50 mg once daily for 11 days
# [4] = previous pharmacokinetic study; cited from earlier work
# [5] = opicapone 50 mg, period 2, N 20
# [6] = opicapone 50 mg, period 3, N 19
smiles,measurement,setting,value
"N[C@@H](Cc1ccc(O)c(O)c1)C(=O)O [L‐dopa, levodopa]",tmax in plasma (median (min-max)),"[1]; opicapone 5 mg cohort (A), first dose of L-dopa/carbidopa",0.50 (0.50‐2.00) h
same,tmax in plasma (median (min-max)),"[1]; opicapone 10 mg cohort (B), second dose of L-dopa/carbidopa",0.50 (0.50‐2.00) h
same,tmax in plasma (median (min-max)),"[1]; opicapone 50 mg cohort (D), first dose of L-dopa/carbidopa",0.50 (0.50‐2.00) h
same,Bioavailable dose in the brain,[2],approximately 1 % of the ingested dose
same,Cmax,clinical,1950 ± 581 ng/mL
same,Tmax,clinical,30 min
"Cc1c(Cl)c(C)[n+]([O-])c(Cl)c1-c1noc(-c2cc(O)c(O)c([N+](=O)[O-])c2)n1 [Opicapone, opicapone]",Change of Cmax and AUC of 3‐OMD following opicapone administration,[3]; especially at the highest opicapone doses,decreased notably
same,Change of AUC of L‐dopa with increasing opicapone dose,"[3]; opicapone 5-50 mg, plateau at 25 mg and higher",increased with increasing opicapone dose; also recorded: tended to increase with increasing opicapone dose; also recorded: plateau in the increase in L‐dopa exposure
same,Number (%) of Subjects Reporting Adverse Event: Diarrhea,"Safety and tolerability; opicapone 5 mg, period 3, N 20",1 (5.0) Number (%) of Subjects
same,Number (%) of Subjects Reporting Adverse Event: Nausea,"Safety and tolerability; opicapone 25 mg, period 3, N 20",3 (15.0) Number (%) of Subjects
same,Subjects who stopped treatment due to adverse event (infectious enteritis),Safety and tolerability; opicapone 50 mg cohort,1 subject
same,Number (%) of Subjects Reporting Adverse Event: All,"Safety and tolerability; opicapone 50 mg, period 2 (opicapone once daily 11 days), N 20",2 (10.0) Number (%) of Subjects
same,"Number (%) of Subjects Reporting Adverse Event: Enteritis, infectious",Safety and tolerability; [5],1 (5.0) Number (%) of Subjects
same,Number (%) of Subjects Reporting Adverse Event: Pharyngitis,Safety and tolerability; [5],1 (5.0) Number (%) of Subjects
same,Number (%) of Subjects Reporting Adverse Event: Nausea,Safety and tolerability; [6],5 (26.3) Number (%) of Subjects
same,Number (%) of Subjects Reporting Adverse Event: Vomiting,Safety and tolerability; [6],3 (15.8) Number (%) of Subjects
same,Tolerability,Safety and tolerability,well tolerated; also recorded: well tolerated with no safety issues
same,Tolerability,Safety and tolerability; listed as opicapone,well tolerated at all doses with no major safety issues
same,Causal relationship of adverse events to opicapone or L‐dopa/carbidopa,Safety and tolerability; period 2,no adverse events reported in period 2 were thought to be related
same,Causal relationship of adverse events to opicapone or L‐dopa/carbidopa,Safety and tolerability; period 3,at least possibly related
same,Increase of L‐dopa trough levels and extent of exposure compared with entacapone,[4],superior response to entacopone
